Where a name gives a salt, the structure may show the parent alone.
Experiments:
[1] = cited from earlier work
[2] = biological target: T1, SphK1 (Homo sapiens, UniProt Q9NYA1); test: biochemical; conditions: read-out: inhibition at SphK1
[3] = biological target: T2, SphK2 (Homo sapiens, UniProt Q9NRA0); test: biochemical; conditions: for inhibition at 1 µM: read-out: inhibition at SphK2
T2 sequence (Q9NRA0 1-654): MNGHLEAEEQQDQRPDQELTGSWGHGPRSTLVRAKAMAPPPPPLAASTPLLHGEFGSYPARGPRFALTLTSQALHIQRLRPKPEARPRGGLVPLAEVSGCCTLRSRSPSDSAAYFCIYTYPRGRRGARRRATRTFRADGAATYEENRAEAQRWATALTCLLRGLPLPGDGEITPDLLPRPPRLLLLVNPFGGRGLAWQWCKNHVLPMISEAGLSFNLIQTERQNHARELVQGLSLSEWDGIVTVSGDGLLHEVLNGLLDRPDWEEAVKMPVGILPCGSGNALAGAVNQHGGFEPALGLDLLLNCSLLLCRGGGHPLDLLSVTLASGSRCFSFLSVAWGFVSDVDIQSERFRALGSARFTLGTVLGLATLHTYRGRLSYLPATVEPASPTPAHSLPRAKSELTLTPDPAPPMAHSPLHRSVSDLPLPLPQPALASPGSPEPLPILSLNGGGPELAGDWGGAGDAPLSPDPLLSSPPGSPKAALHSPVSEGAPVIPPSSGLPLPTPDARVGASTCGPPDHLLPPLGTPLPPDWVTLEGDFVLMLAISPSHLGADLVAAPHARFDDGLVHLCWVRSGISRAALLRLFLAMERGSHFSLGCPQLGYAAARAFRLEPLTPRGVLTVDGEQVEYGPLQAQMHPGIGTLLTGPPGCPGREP

[4] = biological target: T1, SphK1; conditions: screen at 1 μM
[5] = biological target: T2, SphK2; conditions: screen at 1 μM

T1 sequence (Q9NYA1 whole entry, species assumed): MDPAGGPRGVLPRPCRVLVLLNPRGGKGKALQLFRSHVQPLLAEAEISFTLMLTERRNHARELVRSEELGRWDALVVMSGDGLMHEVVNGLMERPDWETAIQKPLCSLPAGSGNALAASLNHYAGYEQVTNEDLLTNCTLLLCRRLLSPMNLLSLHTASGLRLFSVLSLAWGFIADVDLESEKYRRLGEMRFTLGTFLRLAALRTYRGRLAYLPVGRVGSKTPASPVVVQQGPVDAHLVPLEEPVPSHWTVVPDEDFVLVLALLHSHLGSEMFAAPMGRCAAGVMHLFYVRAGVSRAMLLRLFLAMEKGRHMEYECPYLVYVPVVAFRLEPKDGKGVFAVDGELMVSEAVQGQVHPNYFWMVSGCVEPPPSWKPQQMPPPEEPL

inhibition at 1 µM [2] [%] | inhibition at 1 µM [3] [%] | inhibitory activity at SphK1 [4] | inhibitory activity at SphK2 [5] | SMILES | further results
– | – | essentially inactive | essentially inactive | CCCCCCCCc1ccc(-c2noc(C3CN(C(=N)N)C3)n2)cc1.Cl [Compound 20a, Amino(3-(3-(4-octylphenyl)-1,2,4-oxadiazol-5-yl)azetidin-1-yl)methaniminium Chloride] | –
– | – | essentially inactive | essentially inactive | CCCCCCCCc1ccc(-c2noc([C@@H]3CCN(C(=N)N)C3)n2)cc1.Cl [Compound 20b, (R)-Amino(3-(3-(4-octylphenyl)-1,2,4-oxadiazol-5-yl)-pyrrolidin-1-yl)methaniminium Chloride] | –
– | – | inactive | inactive | CCCCCCCCCCc1ccc(NC(=O)[C@@H]2CCCN2C(=N)N)cc1.O=C(O)C(F)(F)F [Compound 29a, (S)-Amino(2-((4-decylphenyl)carbamoyl)pyrrolidin-1-yl)-methaniminium 2,2,2-Trifluoroacetate] | –
– | – | inactive | inactive | CCCCCCCCCCc1ccc(NC(=O)[C@H]2CCCN2C(=N)N)cc1.O=C(O)C(F)(F)F [Compound 29b, (R)-Amino(2-((4-decylphenyl)carbamoyl)pyrrolidin-1-yl)-methaniminium 2,2,2-Trifluoroacetate] | –

Continued, molecule first:

SMILES | inhibition at 1 µM [2] [%] | inhibition at 1 µM [3] [%] | inhibitory activity at SphK1 [4] | inhibitory activity at SphK2 [5] | further results
O=C(NCc1ccncc1)C12CC3CC(C1)CC(c1ccc(Cl)cc1)(C3)C2 [ABC294640] | – | – | – | – | S1P levels in vivo [1]: decreased
CCCCCCCCc1ccc(-c2noc(CNC(=N)N)n2)cc1 [Compound 7a, 1-((3-(4-Octylphenyl)-1,2,4-oxadiazol-5-yl)methyl)guanidine Hydrochloride] | < 20 | < 20 | – | – | –
CCCCCCCCc1ccc(-c2noc(CN(C)C(=N)N)n2)cc1.Cl [Compound 7b, 1-Methyl-1-((3-(4-octylphenyl)-1,2,4-oxadiazol-5-yl)methyl)-guanidine Hydrochloride] | – | – | inactive | inactive | –
CCCCCCCCc1ccc(-c2noc([C@H](C)NC(=N)N)n2)cc1 [Compound 7c, (S)-1-(1-(3-(4-Octylphenyl)-1,2,4-oxadiazol-5-yl)ethyl)-guanidine Hydrochloride] | < 20 | < 20 | – | – | –
CCCCCCCCc1ccc(-c2noc([C@@H](NC(=N)N)C(C)C)n2)cc1 [Compound 7d, (S)-1-(2-Methyl-1-(3-(4-octylphenyl)-1,2,4-oxadiazol-5-yl)-propyl)guanidine Hydrochloride] | < 20 | < 20 | – | – | –
CCCCCCCCc1ccc(-c2noc([C@H](CO)NC(=N)N)n2)cc1 [Compound 7e, (S)-Amino((2-hydroxy-1-(3-(4-octylphenyl)-1,2,4-oxadiazol-5-yl)ethyl)amino)methaniminium Chloride] | < 20 | < 20 | – | – | –
CCCCCCCCc1ccc(-c2noc([C@@H]3CCN3C(=N)N)n2)cc1 [Compound 7j, (S)-2-(3-(4-Octylphenyl)-1,2,4-oxadiazol-5-yl)azetidine-1-carboximidamide Hydrochloride] | – | – | – | – | Ki [3]: 1 µM
CCCCCCCCc1ccc(CNC(=O)[C@@H]2CCCN2C(=N)N)cc1.O=C(O)C(F)(F)F [Compound 31, (S)-Amino(2-((4-octylbenzyl)carbamoyl)pyrrolidin-1-yl)-methaniminium 2,2,2-Trifluoroacetate] | – | – | no significant inhibitory effect | no significant inhibitory effect | –
